Here are results for 3 compounds from ChEMBL document CHEMBL1128926, “The synthesis of a hematoregulatory agent based on HP-5B containing an effective, achiral cystine replacement” (1996).

Positions of bridges follow the written chain, without caps; N, C: chain ends. Non-standard residues stand in square brackets, D forms with d. Residues, ends and D or L forms follow the SMILES beside them. Chains are numbered I, II in the order given. pGlu = O=C1CC[C@@H](C(=O)O)N1

This experiment can be described thus: Compound was evaluated for the production of HSF activity from C6.4 stromal cells using a murine CFU-GM assay. It counts as functional, Mus musculus.
Turning to `NCCCC[C@H](NC(=O)CN(CCCCN(CC(=O)N[C@@H](CCCCN)C(=O)O)C(=O)[C@H](CC(=O)O)NC(=O)[C@H](CCC(=O)O)NC(=O)[C@@H]1CCC(=O)N1)C(=O)[C@H](CC(=O)O)NC(=O)[C@H](CCC(=O)O)NC(=O)[C@@H]1CCC(=O)N1)C(=O)O`, the “HSF activity x10e2” value was determined as 21700 ml. The result for `NCCCC[C@H](NC(=O)[C@H](CCCC[C@H](NC(=O)[C@H](CC(=O)O)NC(=O)[C@H](CCC(=O)O)NC(=O)[C@@H]1CCC(=O)N1)C(=O)N[C@@H](CCCCN)C(=O)O)NC(=O)[C@H](CC(=O)O)NC(=O)[C@H](CCC(=O)O)NC(=O)[C@@H]1CCC(=O)N1)C(=O)O` [GLASPIMOD] reads 14300 ml.

In the case of `NCCCC[C@H](NC(=O)[C@H](CSSC[C@H](NC(=O)[C@H](CC(=O)O)NC(=O)[C@H](CCC(=O)O)NC(=O)[C@@H]1CCC(=O)N1)C(=O)N[C@@H](CCCCN)C(=O)O)NC(=O)[C@H](CC(=O)O)NC(=O)[C@H](CCC(=O)O)NC(=O)[C@@H]1CCC(=O)N1)C(=O)O` (I: [pGlu]EDCK-OH / II: [pGlu]EDCK-OH; disulfide I:4-II:4), the “HSF activity x10e2” value is recorded as 700 ml.
